{
  "source": "patent US5322840A",
  "about": "“Treatment of hyperlipemia and hypertriglyceridemia” (Centre d'Etudes Experimentales et Cliniques de …, priority 1990, dated 1994)",
  "key": {"[1]": {"test_system": "hypertriglyceridemia provoked by Triton WR1339 in Fauve de Bourgogne rabbits", "assay": "Triton-provoked hypertriglyceridemia in rabbits, Agr 529 iv", "format": "in vivo, rabbit", "procedure": "Fauve de Bourgogne rabbits of an average weight of 2 kg (EGAV).\n(§1) The hypertriglyceridemia is obtained by the intravenous (iv) injection of Triton WR1339 (tyloxapol) in a dose of 600 mg/kg, obtained from the Sigma Chemical Company, N. T 8761 (marginal vein of the ear of the rabbit, jugular vein or vein of the penis of the rat, under slight ether anesthesia, the pentobarbital which attaches itself on the A1 receptors being capable of interacting with the molecules used (Lhose et al., 1985). All the animals used had fasted for 15 hours. The blood was collected over heparin, centrifuged for 20 minutes (3000 rpm at 4° C.). In the serum collected, the TG (triglycerides) are determined in accordance with the GPO-PAP method Boeringher Peridochrom® Kit, item 701-882.\n(§2) The animals are divided into two lots:\na control lot (6 animals) receiving isotonic saline solution iv in a volume of 0.5 ml/kg two hours before the injection of Triton and the same dose of saline solution as previously.\na treated lot (7 animals) receiving 2 mg/kg of Agr 529 iv in a volume of 0.5 ml/kg two hours before the injection of Triton and a new dose of Agr 529 (2 mg/kg).\nA sampling of arterial blood, two hours after the injection of the Triton, permits determination of the triglycerides."}, "[2]": {"test_system": "hypertriglyceridemia provoked by Triton WR1339 in Sprague-Dawley rats", "assay": "Triton-provoked hypertriglyceridemia in rats, intraperitoneal route", "format": "in vivo, rat", "procedure": "(§3) Sprague-Dawley male white rats, Iffa Credo, of an average weight of 260-270 g.\nas §1, §2\na control lot (4 animals) receiving isotonic saline solution in a volume of 0.2 ml/100 g of rat by intraperitoneal injection (ip), 20 minutes before the injection of the Triton (iv).\na treated lot (5 animals) receiving 2 mg/kg of Agr 529 ip, under the same conditions as the controls.\nTwo hours later, the animals are sacrificed by decapitation; the blood is collected by the method previously described, for determination of the triglycerides."}, "[3]": {"test_system": "hypertriglyceridemia provoked by Triton WR1339 in Sprague-Dawley rats", "assay": "Triton-provoked hypertriglyceridemia in rats, per os", "format": "in vivo, rat", "conditions": "for Triglycerides: Triton controls 7.53 ± 0.49; for triglycerides plasma concentrations: per os in doses of 3 and 30 mg/kg; for triglycerides plasma concentrations / action on the increase in the circulating triglycerides: Triton model; for action on the increase in the circulating triglycerides: per os", "procedure": "as §3, §1\nThe animals are divided into six lots:\none control-control lot receiving per os isotonic saline solution in a volume of 0.2 ml/100 g of rat 30 minutes before the iv injection of isotonic saline solution.\na Triton control lot receiving per os isotonic saline solution 30 minutes before the iv injection of Triton.\nan Agr 529 lot (3 mg/kg in a volume of 0.2 ml/100 g of rat), 30 minutes before the iv injection of Triton.\none lot receiving, under the same conditions, 30 mg/kg of Agr 529 per os.\ntwo lots receiving, under the same conditions as previously, 3 and 30 mg/kg of Agr 540 per os."}, "normal rats [4]": {"test_system": "normal rats", "assay": "Normal rats, intravenous administration, plasma lipids", "format": "in vivo, rat", "procedure": "(§4) In normal animals, the fatty acids, triglycerides and cholesterol are determined by automated enzymatic reactions.\nThe animals are distributed into six lots of five animals each:\na control lot receiving the placebo (0.9% isotonic saline solution),\nfive treated lots receiving 0.03, 0.1, 0.3, 1 and 3 mg/kg of Agr 529 respectively by intravenous injection.\nThe animals are sacrificed two hours after the injection of the product."}, "normal rats [5]": {"test_system": "normal rats", "assay": "Normal rats, intraperitoneal administration, plasma lipids", "format": "in vivo, rat", "procedure": "as §4\nThe animals are distributed in five lots of five animals each:\n[…] receiving 0.1, 0.3, and 3 mg/kg.\nThe animals are sacrificed two hours after the administration of the Agr 529."}, "normal rats [6]": {"test_system": "normal rats", "assay": "Kinetic study of Agr 529 at 3 mg/kg iv in normal rats", "format": "in vivo, rat", "procedure": "as §4\nc) Kinetic study of Agr 529 in an amount of 3 mg/kg iv (FIG. V, VI, VII, VIII)."}, "[7]": {"test_system": "HMG CoA reductase (β-hydroxy-β-methylglutaryl CoA reductase)", "assay": "In vitro study on microsomal fraction of liver: HMG CoA reductase activity", "format": "biochemical"}, "[8]": {"test_system": "ACAT (cholesterol-O-acyl transferase)", "assay": "In vitro study on microsomal fraction of liver: ACAT activity", "format": "biochemical", "conditions": "'the same' = no action"}, "normal animals": {"test_system": "normal animals", "assay": "Administration in normal animals, hypolipemia (conclusion, route not stated)", "format": "in vivo", "procedure": "as §4"}, "[9]": {"conditions": "report submitted on Agr 529; cited from earlier work"}, "[10]": {"conditions": "rats, 30 mg/kg P.O. + Triton 600 mg/kg iv"}},
  "note": "Entries after “also recorded” stand apart in the source; their conditions may differ.",
  "data": [
    {"smiles": "NC(=O)CCCNc1ncnc2c1ncn2[C@@H]1O[C@H](CO)[C@@H](O)[C@H]1O", "note": "[Agr 529, (N6-3-carboxamido-propyl) adenosine]", "values": [
      {"measurement": "plasma concentration of the circulating triglycerides", "setting": "[1]; 2 mg/kg intravenously in rabbits, Triton WR 1339 model", "result": "normalized the plasma concentration of the circulating triglycerides"},
      {"measurement": "Triglycerides time = 2", "setting": "[1]; rabbits n = 7, 2 hours after Agr 529 2 mg/kg iv, before Triton", "result": "3.19 ± 0.38", "unit": "mmol/L"},
      {"measurement": "Triglycerides time = 4", "setting": "[1]; rabbits n = 7, 2 hours after second Agr 529 2 mg/kg iv + Triton 600 mg/kg iv", "result": "4.65 ± 0.44", "unit": "mmol/L"},
      {"measurement": "increase of the triglycerides caused by Triton", "setting": "[1]; rabbits, Agr 529 2 mg/kg iv, control increase 196.5%", "result": 45, "unit": "%"},
      {"measurement": "Triglycerides time = 0", "setting": "[1]; rabbits, test lot n = 7, time = 0, before first injection of Agr 529 2 mg/kg iv", "result": "1.95 ± 0.34", "unit": "mmol/L"},
      {"measurement": "concentration of triglycerides less than the Triton controls", "setting": "[1]; rabbits, time 4, Agr 529 2 mg/kg iv", "result": 150, "unit": "%"},
      {"measurement": "plasma concentration of the circulating triglycerides", "setting": "[2]; 2 mg/kg intraperitoneally, Triton WR 1339 model", "result": "normalized the plasma concentration of the circulating triglycerides"},
      {"measurement": "Triglycerides", "setting": "[2]; rats n = 5, Agr 529 2 mg/kg ip + Triton 600 mg/kg iv, two hours later, controls 6.32 ± 0.92", "result": "2.90 ± 0.26", "unit": "mmols/liter"},
      {"measurement": "decrease in the quantity of triglycerides in circulation", "setting": "[2]; rats, Agr 529 2 mg/kg ip, Triton model, significant (**)", "result": 54, "unit": "%"},
      {"measurement": "Triglycerides", "setting": "[3]; rats, 3 mg/kg P.O. + Triton 600 mg/kg iv", "result": "4.87 ± 0.69", "unit": "mmols/liter"},
      {"measurement": "Triglycerides", "setting": "[3]; [10]", "result": "4.64 ± 0.74", "unit": "mmols/liter"},
      {"measurement": "triglycerides plasma concentrations", "setting": "[3]; rats", "result": "return the triglycerides plasma concentrations to normal"},
      {"measurement": "action on the increase in the circulating triglycerides", "setting": "[3]; rats", "result": "significantly oppose the increase in the circulating triglycerides"},
      {"measurement": "hyperglycemia", "setting": "normal rats [4]; 3 mg/kg iv", "result": "hyperglycemia is furthermore noted"},
      {"measurement": "concentration of plasma triglycerides, total cholesterol, fatty acids and phospholipides", "setting": "normal rats [4]; 3 mg/kg iv, two hours after the injection, 3 mg/kg", "result": "significant decrease"},
      {"measurement": "minimal effective dose", "setting": "normal rats [4]; Rattus norvegicus, 2 h, iv, doses 0.03-3 mg/kg, two hours after injection, read-out: dose from which the hypolipemizing effect appears", "result": "≥ 0.1", "unit": "mg/kg"},
      {"measurement": "plasma concentrations of fatty acids, phospholipides, triglycerides and total cholesterol, dose dependence", "setting": "normal rats [4]; intravenous administration", "result": "decrease, as a function of the doses"},
      {"measurement": "cholesterol and triglyceride concentrations of the high density lipoproteins (HDL)", "setting": "normal rats [4]; route not specified", "result": "No action"},
      {"measurement": "hyperglycemia", "setting": "normal rats [5]; 0.3 mg/kg intraperitoneal", "result": "hyperglycemia is no longer found"},
      {"measurement": "minimal effective dose", "setting": "normal rats [5]; Rattus norvegicus, ip, 2 h, intraperitoneal, two hours after administration, read-out: dose from which the hypolipemizing effect starts to be significant", "result": "≥ 0.3", "unit": "mg/kg"},
      {"measurement": "hypolipemia, dose dependence", "setting": "normal rats [5]; intraperitoneal administration", "result": "hypolipemia as a function of the doses"},
      {"measurement": "time after injection at which the hypolipemizing effect starts to appear", "setting": "normal rats [6]", "result": 30, "unit": "min"},
      {"measurement": "time of maximum hypolipemizing effect", "setting": "normal rats [6]", "result": "maximum at the end of two hours; also recorded: maximum effect at two hours"},
      {"measurement": "stability towards adenosine deaminase (inferred from long duration of action)", "setting": "normal rats [6]; inferred in vivo", "result": "not destroyed by the adenosine deaminase"},
      {"measurement": "concentrations of fatty acids, triglycerides, total cholesterol and phospholipides", "setting": "normal rats [6]; kinetic study", "result": "significant decrease"},
      {"measurement": "action on the activity of the HMG CoA reductase", "setting": "[7]", "result": "no action"},
      {"measurement": "action on the activity of ACAT", "setting": "[8]", "result": "The same is true"},
      {"measurement": "hypolipemia (reduction of fatty acids, phospholipides, triglycerides and cholesterol)", "setting": "normal animals", "result": "causes a hypolipemia"}
    ]},
    {"smiles": "CCC(=O)OC[C@H]1O[C@@H](n2cnc3c(NCCCC(N)=O)ncnc32)[C@H](OC(=O)CC)[C@@H]1OC(=O)CC", "note": "[Agr 540, 6-(3-carboxamido-propylamino)-9-(2', 3', 5', tripropionyl-β-D-ribosyl) purine]", "values": [
      {"measurement": "Triglycerides", "setting": "[3]; rats n = 6, first Agr 540 column, head prints 30 mg/kg P.O. + Triton 600 mg/kg iv", "result": "5.65 ± 0.46", "unit": "mmols/liter"},
      {"measurement": "Triglycerides", "setting": "[3]; [10]", "result": "3.67 ± 0.59", "unit": "mmols/liter"},
      {"measurement": "triglycerides plasma concentrations", "setting": "[3]; rats", "result": "return the triglycerides plasma concentrations to normal"},
      {"measurement": "action on the increase in the circulating triglycerides", "setting": "[3]; rats", "result": "significantly oppose the increase in the circulating triglycerides"},
      {"measurement": "hypolipemia (reduction of fatty acids, phospholipides, triglycerides and cholesterol)", "setting": "normal animals", "result": "causes a hypolipemia"},
      {"measurement": "absorption per os relative to Agr 529", "setting": "[9]", "result": "better absorbed per os"}
    ]}
  ]
}
